# From ChEMBL document CHEMBL3507680, “University of Dundee, Gates Library screen for HepG2 cell viability”
# Assay: Human HepG2 cell viability assay in 384 well format
# Format: toxicity, cell-based
# Set-up: dose 125 nL, time 70.5 hour; cytotoxicity at 70.5 h: concentration not given beside the values
# Conditions: HepG2 cells, read-out: Inhibition
row,SMILES,cytotoxicity at 70.5 h
1,O=C(Cc1ccsc1)N1CCC(c2noc(-c3ccncc3)n2)CC1,-0.304%
2,COc1ccccc1C1=NOC(CC2(C(=O)O)CCOCC2)C1 (stereo unspecified),19.1%
3,c1ccc(-c2cc(CNCCCN3CCCCC3)c3nnnn3c2)cc1,-0.978%
4,CCNC(=O)C1(CC2CC(c3ccccc3OC)=NO2)CCOCC1 (stereo unspecified),-0.996%
5,CC(C)CNC(=O)C1(Cc2ccccc2-c2ccccc2)CCNC1 (stereo unspecified),-3.17%
6,CN(C)CC(=O)N1C[C@@H]2CC[C@H](Oc3ccccc3)[C@@H]2C1,-0.0251%
7,COCCOCC(=O)N1C[C@@H]2CC[C@H](Oc3ccccc3)[C@@H]2C1,-3.37%
8,Cc1cc(CCC2CN(Cc3ccccc3C(=O)O)CCO2)ncn1 (stereo unspecified),-3.08%
9,CN(C)CCN(C)C(=O)c1ccccc1-n1cc(CN(C)C)cn1,-0.093%
10,Cc1noc(C)c1-c1ccc(C2CCCN2C(=O)Cn2ccnc2)nc1 (stereo unspecified),15.1%
11,Cc1nc2ccc(C(=O)N3C[C@@H](O)[C@H](N4CCCC4)C3)cc2[nH]1,-1.69%
12,Cc1noc(C)c1-c1ccc(C2CCCN2CCC(N)=O)nc1 (stereo unspecified),-3.28%
13,N[C@@H]1CCC[C@@H](Oc2ccc(F)cc2Oc2ccccc2)[C@@H]1O,20.8%
14,C[C@]12CCCCN(C(=O)c3ccccn3)[C@H]1CCCC(=O)N2,5.15%
15,Cc1ccnn1CCC(=O)N1C[C@@H](O)[C@H](Oc2cccc(F)c2)C1,-2.79%
16,Cc1sc2c(C3CCCN(C(C)C)C3)nc(C)n2c1C (stereo unspecified),-3.36%
17,CN1CCCC(c2ccnc(C(=O)NC3CC3)c2)C1 (stereo unspecified),-3.68%
18,CCCn1ccnc1CN1CCCC1c1cccc(-n2ccnc2)n1 (stereo unspecified),11%
19,Cc1ccc(Oc2cc(F)ccc2O[C@@H]2CCC[C@@H](N)[C@H]2O)cc1,16%
20,O=S(=O)(c1ccccc1F)N1CCCC(c2nccs2)C1 (stereo unspecified),-1.24%
21,N[C@@H]1CCC[C@@H](Oc2ccc(F)cc2Oc2cccc(F)c2)[C@@H]1O,-1.82%
22,Cc1nc(C)c(C(=O)N2CCCC2c2nc(O)cc(C(C)C)n2)s1 (stereo unspecified),-6.05%
23,O=C(N[C@@H]1CCC[C@@H](N2CCCC2)[C@@H]1O)c1cc2ccccc2[nH]1,-8.28%
24,O=C(N[C@@H]1CCC[C@@H](N2CCOCC2)[C@@H]1O)c1cc2ccccc2[nH]1,-5.17%
25,Cc1ncc(CN2CCOC(c3ccc(-c4cc[nH]n4)cn3)C2)s1 (stereo unspecified),-2.9%
26,O=C(NCCO)C1CN(c2cncnc2)CCO1 (stereo unspecified),-8.3%

row,SMILES,cytotoxicity at 70.5 h
1,Cc1cccc(C(=O)N2CCCC[C@]3(C)NC(=O)CCC[C@H]23)n1,-8.97%
2,Cc1ncc(CN2C[C@H]3C[C@H](OCc4ccccc4)C[C@H]3C2)cn1,-6.93%
3,Cc1cccc(CC2CCCN(C(=O)C3CCOCC3)C2)n1 (stereo unspecified),-8.54%
4,COc1cccc(CC(=O)N2CCCC2c2nc(C)c(F)c(O)n2)c1 (stereo unspecified),-1.47%
5,Cn1ccnc1C(=O)N1CCOC(Cc2ccc(Cl)cc2)C1 (stereo unspecified),-8.65%
6,Cc1cc(C(N)=O)nc(C2(C)CCCN2Cc2cnn(C)c2C)n1 (stereo unspecified),-0.0176%
7,CN1CCN(C(=O)C2CCN(c3cccnn3)CC2)CC1,-5.88%
8,Cc1cc(C)nc(C2CCN(C(=O)c3cnco3)C2)n1 (stereo unspecified),-6.7%
9,CCCC(=O)N1CCCCC1c1nccc(C)n1 (stereo unspecified),8.32%
10,Cc1nc(Nc2nnc(C)s2)cc(C2CCCN2C(C)C)n1 (stereo unspecified),5.99%
11,CC(=O)N1CCCC1c1cc(Nc2nnc(C)s2)nc(C)n1 (stereo unspecified),17.2%
12,CN1CCC(c2cncc(-c3cccc(Cl)c3)n2)CC1,-2.71%
13,CCc1nnc(Nc2cccc(C3CCN(S(=O)(=O)N(C)C)CC3)n2)s1,-6.79%
14,CC(=O)N1CCCC(c2ccnc(N(C)C)n2)C1 (stereo unspecified),-12.5%
15,Cc1nc(Nc2ncccn2)cc(C2CCCN2C)n1 (stereo unspecified),-7.58%
16,Cc1nc(Nc2nnc(C)s2)cc(C2CCCN2c2ccncc2)n1 (stereo unspecified),-5.11%
17,NC(=O)CN1CCCCC1c1nc(N)ncc1-c1cccc(F)c1 (stereo unspecified),-4.69%
18,CC(C#N)CN(C)C(=O)CCNC(=O)OC(C)(C)C (stereo unspecified),-6.35%
19,CC(C#N)CN(C)C(=O)CCNC(=O)OCC(F)(F)F (stereo unspecified),-0.113%
20,CN1CCOC(CNCc2cnc(C(C)(C)C)s2)C1 (stereo unspecified),0.446%
21,Cc1nc(CN2CCOC3(CCCC3)C2)no1,-5.91%
22,C1CC(CN2CCCCC2C2OCCO2)C1 (stereo unspecified),3.56%
23,CC(C)C(NCc1ccc(Cn2cncn2)cc1)c1ccc(F)cn1 (stereo unspecified),-0.795%
24,C(=C\c1ccccc1)/CNCC1CCc2nncn2C1 (stereo unspecified),5.32%
25,Cc1cc(NC(=O)CN2CCOC(CN(C)C)C2)n(C)n1 (stereo unspecified),17.6%
26,CN1CCN(C)C(CNC(=O)N(C)Cc2ccccc2Cl)C1 (stereo unspecified),-0.256%

row,SMILES,cytotoxicity at 70.5 h
1,CN1CCN(S(=O)(=O)c2ccc(Sc3nccn3C)nc2)CC1,21.6%
2,O=C(CCOCc1ccccc1)NS(=O)(=O)N1CCOc2ccccc21,11%
3,O=C(CCc1ccco1)NS(=O)(=O)N1CCOc2ccccc21,-1.31%
4,CC(O)CN(C(=O)NC1CC1)C(C)C (stereo unspecified),29.8%
5,CS(=O)(=O)CCn1ccc(NC(=O)Cc2ccccc2F)n1,3.54%
6,Cn1ccc(NC(=O)Cc2ccccc2F)n1,19.9%
7,CC(C)N(CC(C)(C)O)C(=O)NC1CC1,20.8%
8,CCN(CC)S(=O)(=O)NCC(O)c1c(Cl)cccc1Cl (stereo unspecified),8.36%
9,CC(O)CN(C(=O)NC1CCN(CC2CCCCC2)CC1)C(C)C (stereo unspecified),1.48%
10,Cn1c(NCc2ccc(C(N)=O)cc2)nc2cc(Cl)ccc21,18.9%
11,CCOC(C)c1nccn1CC(=O)Nc1cc(C)on1 (stereo unspecified),-0.0484%
12,CCc1nc(NS(=O)(=O)c2cccc(F)c2C)no1,7%
13,CS(=O)(=O)CCn1ccc(NC(=O)c2c(F)cccc2F)n1,-12.1%
14,O=S(=O)(N1CCCCC1)N1CCCN(CC2CCCO2)CC1 (stereo unspecified),1.43%
15,Cn1cc(CNC2CCCOc3c(Cl)cccc32)cn1 (stereo unspecified),3.49%
16,O=S(=O)(N1CCCC1)N1CCN(CC2CCCO2)CC1 (stereo unspecified),-3.59%
17,CC(C)(C)c1cc(NC(=O)CNC2CCc3ncnn3C2)on1 (stereo unspecified),-11.9%
18,CCOC(C)c1nccn1Cc1noc(CC)n1 (stereo unspecified),16.7%
19,O=C(CSCc1ccccn1)NCC1CCN(C2CC2)C1 (stereo unspecified),0.243%
20,CCCn1ccnc1SCC(=O)NC(Cc1ccccc1)C(C)=O (stereo unspecified),1.89%
21,Cc1cc(N(Cc2cccs2)C2CC2)n2nc(C(F)(F)F)nc2n1,-1.76%
22,CC(C)c1noc(CNc2ccccc2CC(=O)N(C)C)n1,-2.98%
23,Cc1ccc(NCc2ccc(C#N)cc2)cc1-n1cnnn1,10.5%
24,CC(C)(C)c1nc(CN2CCC(N3CCCCC3)CC2)no1,-2.12%
25,Cc1[nH]ncc1CCCNC(=O)N1CCC(CC(N)=O)CC1,-0.905%
26,Fc1cccc2c1CCC2NCc1ccc(N2CCOCC2)cc1 (stereo unspecified),1.27%

row,SMILES,cytotoxicity at 70.5 h
1,CN1CCN(C2CCN(Cc3noc(C(C)(C)C)n3)CC2)C1=O,9.12%
2,CN1CCN(C2CCN(Cc3noc(-c4ccccc4)n3)CC2)C1=O,-3.63%
3,CC(C)(C)c1n[nH]c(C2CN(CCNC3CCCCC3)CCO2)n1 (stereo unspecified),-1.09%
4,CC(C)(C)c1n[nH]c(C2CN(CC3CCC3)CCO2)n1 (stereo unspecified),-0.868%
5,CN(C)C(=O)Cc1ccccc1NCc1noc(-c2ccccc2)n1,2.37%
6,COc1ccc(C(=O)NS(=O)(=O)c2ccc(CNC(C)=O)s2)cc1,-4.22%
7,Cc1nc(C)c(C(=O)N2CCc3ccc(F)cc3C2C)o1 (stereo unspecified),-0.841%
8,O=C(c1cccnc1N1CCCC1)N1CCOC(c2ccccc2)C1 (stereo unspecified),-2.27%
9,CCC(O)(CNCc1ccncc1)c1ccc(Br)cc1 (stereo unspecified),1.46%
10,CC(=O)NCc1ccc(S(=O)(=O)NC(=O)c2ccc3c(c2)CCO3)s1,-2.05%
11,CC(C)(C)c1n[nH]c(C2CN(CCc3ccncc3)CCO2)n1 (stereo unspecified),0.424%
12,Cc1nc(C)c(C(=O)N2Cc3cc(F)ccc3CC2C)o1 (stereo unspecified),-3.47%
13,CCOCC(=O)N1CCC(C(O)c2ccc(F)cc2)CC1 (stereo unspecified),2.49%
14,Fc1ccc(CNCc2cc(Br)c3c(c2)OCO3)cc1,7.59%
15,FC(F)Oc1ccccc1CNCc1cc(Br)c2c(c1)OCO2,-7.29%
16,COc1ccccc1CC1CCCN(C(=O)c2cn[nH]c2C)C1 (stereo unspecified),-10.8%
17,CC(O)CN(Cc1cccc(C(N)=O)c1)c1ccccc1 (stereo unspecified),-7.27%
18,c1ccc(-c2cc(CNCCCC3CCOC3)c3nnnn3c2)cc1 (stereo unspecified),5.9%
19,CC(C)OCCCN(Cc1ccncc1)Cc1cc(F)cc(F)c1,58.6%
20,Cc1cc(C(=O)N2CCc3nc(C4CCCN4)ncc3C2)cs1 (stereo unspecified),-4.19%
21,CNCC(=O)N1CC(c2cc(Nc3nc(C)cs3)nc(C)n2)C1,-12.3%
22,Clc1ccccc1CN1CCc2nc(C3CCCNC3)ncc2C1 (stereo unspecified),-7.56%
23,CC(C)C[C@H](N)C(=O)N1CCSc2ccccc2C1,0.624%
